Consider 1 compound from ChEMBL document CHEMBL5126524, “Niemann-Pick C1-Like 1 inhibitors for reducing cholesterol absorption” (Eur J Med Chem, 2022).

This experiment has as its target T1, NPC1-like intracellular cholesterol transporter 1 (Homo sapiens, UniProt Q9UHC9).
T1 sequence (Q9UHC9 whole entry): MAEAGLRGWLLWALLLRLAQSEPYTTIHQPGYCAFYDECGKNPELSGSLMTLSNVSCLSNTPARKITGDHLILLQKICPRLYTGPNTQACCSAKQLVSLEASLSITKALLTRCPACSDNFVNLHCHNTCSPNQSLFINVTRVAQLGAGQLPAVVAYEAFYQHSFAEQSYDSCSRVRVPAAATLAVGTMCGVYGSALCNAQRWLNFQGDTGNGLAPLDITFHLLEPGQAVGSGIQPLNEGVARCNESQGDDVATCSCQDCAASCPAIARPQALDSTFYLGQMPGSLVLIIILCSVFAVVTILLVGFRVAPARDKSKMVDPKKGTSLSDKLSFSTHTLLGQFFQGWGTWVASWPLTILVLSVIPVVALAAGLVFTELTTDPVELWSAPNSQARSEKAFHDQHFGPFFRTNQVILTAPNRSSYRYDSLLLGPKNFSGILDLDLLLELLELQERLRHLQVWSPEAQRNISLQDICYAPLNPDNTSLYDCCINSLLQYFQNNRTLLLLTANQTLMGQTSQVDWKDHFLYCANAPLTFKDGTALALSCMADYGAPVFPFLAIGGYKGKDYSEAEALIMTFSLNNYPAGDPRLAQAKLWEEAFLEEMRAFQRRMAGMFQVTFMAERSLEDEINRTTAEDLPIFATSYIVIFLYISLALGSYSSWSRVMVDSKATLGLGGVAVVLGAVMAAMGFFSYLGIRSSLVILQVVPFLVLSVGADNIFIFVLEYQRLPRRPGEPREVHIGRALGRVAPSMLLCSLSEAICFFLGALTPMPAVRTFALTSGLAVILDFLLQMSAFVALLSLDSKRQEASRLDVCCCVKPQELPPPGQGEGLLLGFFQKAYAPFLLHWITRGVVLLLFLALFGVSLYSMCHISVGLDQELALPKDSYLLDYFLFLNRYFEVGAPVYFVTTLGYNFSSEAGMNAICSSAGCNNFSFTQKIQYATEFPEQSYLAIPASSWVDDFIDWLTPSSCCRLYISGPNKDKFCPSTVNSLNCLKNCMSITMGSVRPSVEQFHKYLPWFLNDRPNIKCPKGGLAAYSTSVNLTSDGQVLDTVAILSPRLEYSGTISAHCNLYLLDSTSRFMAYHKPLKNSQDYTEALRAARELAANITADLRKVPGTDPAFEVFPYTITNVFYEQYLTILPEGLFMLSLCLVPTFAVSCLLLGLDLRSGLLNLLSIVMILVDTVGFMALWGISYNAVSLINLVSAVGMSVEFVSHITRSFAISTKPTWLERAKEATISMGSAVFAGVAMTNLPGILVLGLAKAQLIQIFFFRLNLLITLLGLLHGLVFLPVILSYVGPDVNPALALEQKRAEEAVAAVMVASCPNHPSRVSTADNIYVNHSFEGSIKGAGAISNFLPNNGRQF
In words: Inhibition of NPC1L1 (unknown origin) assessed as inhibition of cholesterol cellular uptake by BCA colorimetric assay.

Consider `O=C1[C@H](CC[C@H](O)c2ccc(F)cc2)[C@@H](c2ccc(O)cc2)N1c1ccc(F)cc1` [EZETIMIBE], for which the IC50 (as a rule, the midpoint of a concentration-inhibition curve) worked out at 370 nM.
